Test results taken from the supplement of paper PMC11451515.

Tests used:
Details in all cases: 48 h
NOMO1 [1] = assay: cell viability relative to DMSO control; higher = less cytotoxic
Procedure, shortened: (§1)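 Three leukemia lines were tested: NOMO1 and SEM at 500 cells/well and P12-Ichikawa at 1000 cells/well. Each was adapted for at least four passages in each medium and seeded in 5 μl in 1536-well plates, and library compounds in DMSO were pin-dosed from 47 μM to 0.79 nM in 11 threefold steps. After 48 h at 37°C, CellTiter-Glo One luminescence was read. Viability is a percentage relative to DMSO wells on each plate, with cell-free wells as background.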

P12-Ichikawa [2] = assay: as above
Procedure, shortened: as §1

SEM cells [3] = assay: as above
Procedure, shortened: as §1

NOMO1 [4] = assay: AUC of viability dose-response curve (% viability x log10 dose units); higher = less sensitive
Procedure, shortened: (§2)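 Library compounds in DMSO were applied for 48 h at 37°C at 11 threefold doses (47 μM to 0.79 nM) to medium-adapted leukemia cells in 1536-well plates holding 500 or 1000 cells/well. Luminescence from CellTiter-Glo One was normalised plate by plate against DMSO and cell-free wells. Area under the curve came from trapezoidal integration of a log-logistic fit, after scaling curves that rose above full viability and discarding those that failed quality control. The fit had four parameters and used log10 doses.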

P12-Ichikawa [5] = assay: as above
Procedure, shortened: as §2

SEM cells [6] = assay: as above
Procedure, shortened: as §2

CCN(C)C(=O)Oc1cccc([C@H](C)N(C)C)c1
cell viability [%]
Details	NOMO1 [1]	P12-Ichikawa [2]	SEM cells [3]
HPLM + 10% dialyzed FBS, 0.000781 µM	110	117	101
HPLM + 10% dialyzed FBS, 0.00234 µM	117	105	108
HPLM + 10% dialyzed FBS, 0.00702 µM	124	104	104
HPLM + 10% dialyzed FBS, 0.0211 µM	128	114	125
HPLM + 10% dialyzed FBS, 0.0632 µM	102	106	110
HPLM + 10% dialyzed FBS, 0.19 µM	110	105	119
HPLM + 10% dialyzed FBS, 0.569 µM	122	107	97.4
HPLM + 10% dialyzed FBS, 1.71 µM	95.3	107	105
HPLM + 10% dialyzed FBS, 5.12 µM	99.9	99.5	99.2
HPLM + 10% dialyzed FBS, 15.4 µM	109	96.4	101
HPLM + 10% dialyzed FBS, 46.1 µM	106	104	105
RPMI 5 mM glucose + 10% FBS, 0.000781 µM	95.9	106	121
RPMI 5 mM glucose + 10% FBS, 0.00234 µM	102	104	114
RPMI 5 mM glucose + 10% FBS, 0.00702 µM	99.3	–	108
RPMI 5 mM glucose + 10% FBS, 0.0211 µM	105	102	111
RPMI 5 mM glucose + 10% FBS, 0.0632 µM	108	99.7	122
RPMI 5 mM glucose + 10% FBS, 0.19 µM	94.4	102	90.1
RPMI 5 mM glucose + 10% FBS, 0.569 µM	108	113	95.9
RPMI 5 mM glucose + 10% FBS, 1.71 µM	111	101	95.9
RPMI 5 mM glucose + 10% FBS, 5.12 µM	92.6	95.6	85.7
RPMI 5 mM glucose + 10% FBS, 15.4 µM	112	102	105
RPMI 5 mM glucose + 10% FBS, 46.1 µM	98.4	99.2	99.5
RPMI 5 mM glucose + 10% dialyzed FBS, 0.000781 µM	101	103	124
RPMI 5 mM glucose + 10% dialyzed FBS, 0.00234 µM	98.3	102	100
RPMI 5 mM glucose + 10% dialyzed FBS, 0.00702 µM	104	99.3	111
RPMI 5 mM glucose + 10% dialyzed FBS, 0.0211 µM	111	98.7	121
RPMI 5 mM glucose + 10% dialyzed FBS, 0.0632 µM	109	103	110
RPMI 5 mM glucose + 10% dialyzed FBS, 0.19 µM	97.7	104	109
RPMI 5 mM glucose + 10% dialyzed FBS, 0.569 µM	91.6	104	121
RPMI 5 mM glucose + 10% dialyzed FBS, 1.71 µM	87.1	98.2	101
RPMI 5 mM glucose + 10% dialyzed FBS, 5.12 µM	105	93.4	111
RPMI 5 mM glucose + 10% dialyzed FBS, 15.4 µM	98.5	94.7	110
RPMI 5 mM glucose + 10% dialyzed FBS, 46.1 µM	110	86.7	95.6

AUC of viability dose-response curve
Details	NOMO1 [4]	P12-Ichikawa [5]	SEM cells [6]
HPLM + 10% dialyzed FBS	451	452	463
RPMI 5 mM glucose + 10% FBS	468	458	432
RPMI 5 mM glucose + 10% dialyzed FBS	474	465	452
